Laboratory results published in patent publication US7579338B2, “Methods and compositions for treating atheroma, tumors and other neoplastic tissues” (Pharmacyclics, Inc., priority 1999, dated 2009).

Key:
[1] = tested on: MES-SA human uterine cells; assay: Proliferation of MES-SA cells with ascorbate and texaphyrin (MTT); assay type: cell-based; details: ascorbate at or below 333 μM, absence of texaphyrin
Experimental: The proliferation of MES-SA human uterine cells (Harker, W. G.; MacKintosh, F. R.; Sikic, B. I. Cancer Res. 1983, 43, 4943-4950) grown in RPMI-1640 medium in the presence of ascorbate or complex was used to assess the formation of hydrogen peroxide under cell culture conditions.
(§1) 5A. Materials and Methods. MES-SA cells were allowed to adhere to (4) 96-well microtiter plates (4000 cells per well) overnight in 160 μL RPMI medium. Stock ascorbate 3.0 mM in medium (80 μL) was serially diluted (1:3) in rows B through F (discarding the final 80 μL). Row G was used for no-ascorbate control. Stock solutions of GdTex (2 mM in 5% mannitol) diluted in medium and 5% mannitol were prepared and added to the plates to give a final volume of 200 μL in all wells. Columns 2 and 3 contained 100 μM GdTex; columns 4 and 5 contained 75 μM GdTex, columns 6 and 7 contained 50 μM GdTex; columns 8 and 9 contained 25 μM GdTex; and columns 10 and 11 contained no GdTex (all concentrations final). Final mannitol concentration was 0.25% in all wells. The plates were incubated at 37 C under a 5% CO2/95% air atmosphere. Complex-containing medium was exchanged for fresh medium after 5 hours, and plates were incubated an additional 72 hours prior to analysis for viability using the tetrazolium dye, MTT (Mosmann, T. J. Immunol. Methods 1983, 65, 55-63). In brief, 20 μL MTT dye (Sigma Chemical, St. Louis, Mo., catalogue no. M 2128, 5 mg/mL solution in phosphate buffered saline) was added to cells in media to give a final volume of 200 μL. The plates were incubated at 37° C. for ca. 2 hours, whereupon the media was removed and isopropyl alcohol (100 μL/well) was added. Plates were vortexed for ca. 3 minutes to dissolve MTT formazan, then read on a microplate reader at 560-650 nm. Plate absorbances were normalized to wells containing neither ascorbate nor GdTex to allow plate to plate comparison. Data for each concentration of GdTex and ascorbate is the average of eight wells.
The proliferation of MES-SA human uterine cells grown in RPMI-1640 medium in the presence of ascorbate and LuTex was used to assess the production of hydrogen peroxide under cell culture conditions following the protocol outlined in the previous example.

MES-SA cells [2] = assay: Radiation sensitization by clonogenic assay; assay type: cell-based, human; details: 50 μM GdTex or 100 μM BSO for 24 h prior to irradiation, ascorbate-containing medium
Experimental: The response of MES-SA cells to ionizing radiation was studied using a clonogenic assay format to confirm radiation sensitization potential.
Materials and Methods. MES-SA cells (200 to 5,000 cells per dish) were plated in T-25 flasks in 8.5 mL McCoys 5A containing 10% FBS (Gibco-BRL) and ca. 2% penicillin/streptomycin solution (Sigma) and incubated at 37° C. overnight. Stock BSO, ascorbate, GdTex (or a control 5% mannitol) solutions were prepared and 0.5 mL of each added to each flask to give a final volume of 10 mL (final concentrations of BSO, ascorbate and GdTex were 100 μM, 5 μM and 50 μM, respectively) and the cells incubated for 24 hr, whereupon the flasks were irradiated using a 137Cs irradiator (Model 40 Gammacell, J. L. Shepherd & Assoc., San Fernando, Calif.) at a dose rate of 0.805 Gy/min. Medium was removed immediately after irradiation, the cells were washed with fresh medium (5.0 mL) followed by the addition of fresh medium (10 mL) and incubation for an additional 11 days. Colonies were fixed and stained with 1% crystal violet and then counted.

[3] = tested on: MES-SA human uterine cells; assay: Proliferation of MES-SA cells with BSO and GdTex (MTT); assay type: cell-based; details: Homo sapiens, MES-SA; absence of GdTex, highest (50 μM) concentration tested, ca. 72 hours; read-out: inhibitory effect of BSO alone
Experimental: The proliferation of MES-SA human uterine cells grown in McCoys 5A medium in the presence of a thiol depleting agent (BSO) or GdTex was used to assess the combined effect of these agents. The protocol outlined in the previous example was followed, with the following changes:
1. The serially diluted compound was 200 μM BSO (Sigma Chemical, St. Louis, Mo., catalogue no. G1404).
2. The cells were allowed to incubate in the presence of the two drugs for ca. 72 hours, prior to exchange of media and analysis using the colorimetric (MTT) assay, as described, e.g., in Example 5.

MES-SA cells [4] = assay: Response of MES-SA cells to ionizing radiation, microtiter plate format (MTT); assay type: cell-based, human; details: BSO 0 to 100 μM and higher, data not shown
Experimental: The response of MES-SA cells to ionizing radiation was studied using the microtiter plate format to confirm radiation sensitization potential. This assay is used to assess rapidly the effects of irradiation under a variety of conditions.
10A. Materials and Methods. MES-SA cells were incubated at 37° C. and allowed to adhere to 96-well microtiter plates (1000 cells per well) overnight in 160 μL McCoys 5A containing 10% FBS (Gibco-BRL) and ca. 2% penicillin/streptomycin solution (Sigma). BSO or media (20 μL) was added, respectively to test and control wells, 24 h prior to irradiation. Metallotexaphyrin complex (up to 100 μM) was added to the test wells to give a final volume of 200 μL, 18-24 h prior to irradiation. Plates were irradiated using a 137Cs irradiator (Model 40 Gammacell, J. L. Shepherd & Assoc., San Fernando, Calif.) at a dose rate of 33.25 Rad/min. A lead brick (2″ diameter) was positioned to protect a column of wells (no. 11) from ionizing radiation. Plate absorbances were normalized to shielded wells to allow plate-to-plate comparison. […] Reversing the position of texaphyrin complex-containing wells had no effect on assay outcome. Medium was exchanged immediately after irradiation, and plates were incubated an additional 120 h prior to analysis for viability using the MTT assay (as described, e.g., in Example 5).

[5] = tested on: EMT-6 mouse mammary sarcoma cells; assay: Proliferation of EMT-6 cells with NADPH and texaphyrin (MTT); assay type: cell-based; details: NADPH at or below 1000 μM, absence of texaphyrin
Experimental: as §1
(§2) The proliferation of EMT-6 mouse mammary sarcoma (Rockwell, S. C., et al., J. Natl. Cancer Inst. 1972, 49, 735-749) cells grown in RPMI-1640 medium in the presence of NADPH and motexafin lutetium was used to assess the production of hydrogen peroxide under cell culture conditions following the protocol outlined in the previous example.
as §2, with “GdTex” for “motexafin lutetium”

Structure (SMILES): O=C1O[C@H]([C@@H](O)CO)C(O)=C1O [Ascorbate, ascorbic acid, reference compound]
- inhibitory effect on cell proliferation, ascorbate alone [1]: no inhibitory effect

Structure (SMILES): CCCCS(=N)(=O)CC[C@H](N)C(=O)O (stereo partly drawn) [BSO, L-Buthionine-[S,R]-Sulfoximine, reference compound]
- effect on clonogenic survival as a function of radiation, single agent (MES-SA cells [2]): relatively small effect on clonogenic survival
- inhibition at 50 µM [3]: ~10%
- effect of BSO on GdTex radiation sensitization (MES-SA cells [4]): dose-dependent from 0 to 100 μM, and leveled off at higher BSO concentrations

Structure (SMILES): NC(=O)C1=CN([C@@H]2O[C@H](COP(=O)(O)OP(=O)(O)OC[C@H]3O[C@@H](n4cnc5c(N)ncnc54)[C@H](OP(=O)(O)O)[C@@H]3O)[C@@H](O)[C@H]2O)C=CC1 [NADPH, reference compound]
- inhibitory effect on cell proliferation, NADPH alone [5]: no inhibitory effect
